Laboratory results: the supplement of paper PMC10307832

Key:
AZD5582 + Foretinib = compound: C[C@@H](C(=O)N[C@@H](C1CCCCC1)C(=O)N2CCC[C@H]2C(=O)N[C@@H]3[C@@H](CC4=CC=CC=C34)OCC#CC#CCO[C@@H]5CC6=CC=CC=C6[C@@H]5NC(=O)[C@@H]7CCCN7C(=O)[C@H](C8CCCCC8)NC(=O)[C@H](C)NC)NC [AZD5582] + COc1cc2c(Oc3ccc(NC(=O)C4(C(=O)Nc5ccc(F)cc5)CC4)cc3F)ccnc2cc1OCCCN1CCOCC1 [Foretinib] (partner 0.25 µM); test: relative viability (nuclei count vs DMSO), 5 days (fraction); higher = more cells survive
How it was run: (§1)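 Five library-drug doses in √10 steps were combined with a fixed anchor-drug dose, or a single drug was given alone, by pin tool to lung cancer cell lines in 1536-well plates the day after seeding. Nuclei were stained and counted after 5 days. Relative viability is the nuclei count in treated wells over that in vehicle wells, taken as the median of duplicate plates.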

[1] = compound: Cn1nnc2c(C(N)=O)ncn2c1=O [Temozolomide] + Cc1cc(Nc2cc(N3CCN(C)CC3)nc(Sc3ccc(NC(=O)C4CC4)cc3)n2)n[nH]1 [Tozasertib] (partner 0.1 µM); test: as above
How it was run: as §1

Cell Line	relative viability (AZD5582 + Foretinib; first compound 0.001581 µM)	relative viability (AZD5582 + Foretinib; first compound 0.005 µM)	relative viability (AZD5582 + Foretinib; first compound 0.01581 µM)	relative viability (AZD5582 + Foretinib; first compound 0.05 µM)	relative viability ([1]; first compound 0.6325 µM)	relative viability ([1]; first compound 2 µM)	relative viability ([1]; first compound 6.325 µM)	relative viability ([1]; first compound 20 µM)	relative viability ([1]; first compound 0.2 µM)
NCI-H1793	0.737	0.827	0.572	0.908	0.31	0.45	0.325	0.301	
HCC-15	0.74	0.805	0.959	0.75	0.412	0.5	0.384	0.599	0.522
NCI-H1437	1.17	1.22	1.24	1.16	0.415	0.422	0.422	0.415	0.422
